Source: patent US5698538A, “Boronic acid and ester inhibitors of thrombin” (The DuPont Merck Pharmaceutical Company, priority 1996, dated 1997)
Structures can show the parent of a compound that is named as a salt. Where two headings read alike, the source gives them in different places.

Assays:
Assay type in all cases: biochemical
[1] = biological target: T1, human thrombin (Homo sapiens, UniProt P00734); test: Inhibition of human thrombin (chromogenic substrate S2238), inhibitory constant Ki; conditions: 0.2-0.5 nM human thrombin, S2238, pH 7.5, 30 minutes; read-out: Ki values for inhibition of Serine Proteases: Thrombin
T1 construct: purchased Enzyme Research Laboratories, South Bend, Ind
Experimental: (§1) The effectiveness of compounds of the present invention as inhibitors of blood coagulation proteases was determined using purified human proteases and synthetic substrates following procedures similar to those described in Kettner et al. (1990).
(§2) For these assays, the rate of enzymatic (thrombin, Factor Xa, and Factor VIIa) hydrolysis of chromogenic substrates (S2238 (H-D-Phe-Pip-Arg-pNA), S2222, and S2288, respectively; Kabi Pharmacia, Franklin, Ohio.) was measured both in the absence and presence of compounds of the present invention. […] A decrease in the rate of absorbance change at 405 nm in the presence of inhibitor is indicative of enzyme inhibition. The results of this assay are expressed as inhibitory constant, Ki.
(§3) Thrombin and Xa determinations were made in 0.10M sodium phosphate buffer, pH 7.5, containing 0.20M NaCl, and 0.5% PEG 8000. VIIa determinations were made in 0.05M tris buffer, pH 7.6, containing 0.10M NaCl, 4 mM CaCl2, and 0.1% bovine serum albumin. The Michaelis constant, Km, for substrate hydrolysis was determined at 5° C. using the method of Lineweaver and Burk.
(§4) Values of Ki were determined by allowing 0.2-0.5 nM human thrombin or human factor Xa (Enzyme Research Laboratories, South Bend, Ind.), or 50 nM human factor VIIa (BiosPacific, Emeryville, Calif.) react with the substrate (0.20 mM-1 mM) in the presence of inhibitor. Reactions were allowed to go for 30 minutes and the velocities (rate of absorbance change vs time) were measured in the time frame of 25-30 minutes. The following relationship was used to calculate Ki values. [formula] where: vo is the velocity of the control in the absence of inhibitor;
(§5) vs is the velocity in the presence of inhibitor;
(§6) I is the concentration of inhibitor;
(§7) Ki is the dissociation constant of the enzyme: inhibitor complex;
(§8) S is the concentration of substrate;
(§9) Km is the Michaelis constant.

[2] = biological target: T2, human factor Xa (Homo sapiens, UniProt P00742); test: Inhibition of human factor Xa (chromogenic substrate S2222), inhibitory constant Ki; conditions: S2222, pH 7.5, 30 minutes, read-out: Ki values for inhibition of Serine Proteases: Factor Xa
T2 construct: purchased Enzyme Research Laboratories, South Bend, Ind
Experimental: as §1, §2, §3, §4, §5, §6, §7, §8, §9

[3] = biological target: T3, human factor VIIa (Homo sapiens, UniProt P08709); test: Inhibition of human factor VIIa (chromogenic substrate S2288), inhibitory constant Ki
T3 construct: Factor VIIa in the extrinsic pathway; purchased BiosPacific, Emeryville, Calif
T3 sequence (P08709 213-466 limits assumed): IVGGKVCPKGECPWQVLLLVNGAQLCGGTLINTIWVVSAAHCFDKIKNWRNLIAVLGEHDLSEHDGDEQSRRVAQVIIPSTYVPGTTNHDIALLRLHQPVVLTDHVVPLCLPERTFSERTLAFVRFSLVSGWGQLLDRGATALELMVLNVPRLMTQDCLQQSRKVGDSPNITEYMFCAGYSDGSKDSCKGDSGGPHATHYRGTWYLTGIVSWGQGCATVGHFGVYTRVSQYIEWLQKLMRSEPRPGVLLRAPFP
T3 sequence (P08709 61-212 partner limits assumed): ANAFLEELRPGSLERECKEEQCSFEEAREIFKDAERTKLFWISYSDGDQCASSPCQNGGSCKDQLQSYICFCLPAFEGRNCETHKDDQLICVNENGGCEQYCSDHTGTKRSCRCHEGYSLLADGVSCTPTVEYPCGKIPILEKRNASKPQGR
Experimental: as §1, §2, §3, §4, §5, §6, §7, §8, §9

[4] = 50 nM human factor VIIa, S2288, pH 7.6, 4 mM CaCl2, 30 minutes, read-out: Ki values for inhibition of Serine Proteases: Factor VIIa

T2 sequence (P00742 235-488 limits assumed): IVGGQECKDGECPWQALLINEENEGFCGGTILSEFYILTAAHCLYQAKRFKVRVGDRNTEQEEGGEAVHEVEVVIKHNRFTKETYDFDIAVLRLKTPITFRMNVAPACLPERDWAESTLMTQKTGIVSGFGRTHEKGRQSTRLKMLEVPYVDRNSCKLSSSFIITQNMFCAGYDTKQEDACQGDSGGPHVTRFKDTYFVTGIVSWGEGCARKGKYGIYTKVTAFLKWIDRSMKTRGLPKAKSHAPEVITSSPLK
T2 sequence (P00742 41-179 partner limits assumed): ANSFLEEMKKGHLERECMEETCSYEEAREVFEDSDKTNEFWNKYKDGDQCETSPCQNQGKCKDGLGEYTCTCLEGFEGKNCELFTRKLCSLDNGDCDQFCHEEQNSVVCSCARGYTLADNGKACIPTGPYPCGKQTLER

Ki [1]	Ki [2]	Ki [3, 4]	Ki [3]	SMILES
< 500 nM	500 to 50000 nM	500 to 50000 nM		CC1(C)C2CC3OB([C@H](CCCCN)NC(=O)Cn4nc(Cc5ccccc5)nc4COCc4ccccc4)OC3(C)C1C2 (single isomer, unassigned) [Example 2440]
< 500 nM	500 to 50000 nM	500 to 50000 nM		CC1(C)C2CC3OB([C@H](CCCCN)NC(=O)c4cnc(-c5ccccc5)nc4-c4ccccc4)OC3(C)C1C2 (single isomer, unassigned) [Example 3465]
< 500 nM	500 to 50000 nM	500 to 50000 nM		CC1(C)C2CC3OB([C@H](CCCCN)NC(=O)Cn4nc(Cc5ccccc5)nc4CC#N)OC3(C)C1C2 (single isomer, unassigned) [Example 2422]
< 500 nM	500 to 50000 nM	500 to 50000 nM		Cc1nc(-c2ccccc2)nn1CC(=O)N[C@@H](CCCCN)B1OC2CC3CC(C3(C)C)C2(C)O1 (single isomer, unassigned) [Example 2074]
< 500 nM	< 500 nM	< 500 nM		CC1(C)[C@@H]2C[C@H]3OB([C@H](CCCNC(=N)N)NC(=O)c4ccc(-c5ccccc5)c([N+](=O)[O-])c4)O[C@@]3(C)[C@H]1C2 [Example 298]
< 500 nM	500 to 50000 nM	500 to 50000 nM		CC1(C)C2CC3OB([C@H](CCCNC(=N)N)NC(=O)Cn4nc(-c5cccc([N+](=O)[O-])c5)nc4Cc4ccccc4)OC3(C)C1C2 (single isomer, unassigned) [Example 969]
< 50000 nM	500 to 50000 nM	500 to 50000 nM		NCCCC[C@H](NC(=O)c1ccc(-c2ccccc2)nc1)B(O)O [Example 474]
< 500 nM	< 500 nM	< 500 nM		CC1(C)[C@@H]2C[C@H]3OB([C@H](CCCNC(=N)N)NC(=O)c4ccc(-c5ccccc5)c(N)c4)O[C@@]3(C)[C@H]1C2 [Example 299]
< 500 nM	< 500 nM	< 500 nM		CC1(C)[C@@H]2C[C@H]3OB([C@H](CCCNC(=N)N)NC(=O)c4cccc(-c5ccccc5)c4)O[C@@]3(C)[C@H]1C2 [Example 2]
< 500 nM	500 to 50000 nM	500 to 50000 nM		NCCCC[C@H](NC(=O)Cn1cnc(Cc2ccccc2)n1)B(O)O [Example 2499]
< 500 nM	500 to 50000 nM	> 500000 nM		NCCCC[C@H](NC(=O)Cn1nc(Cc2ccccc2)nc1-c1ccccc1)B(O)O [Example 2533]
< 500 nM	500 to 50000 nM	500 to 50000 nM		CSCc1nc(Cc2ccccc2)n(CC(=O)N[C@@H](CCCCN)B2O[C@@H]3C[C@@H]4C[C@@H](C4(C)C)[C@]3(C)O2)n1 [Example 892]
< 500 nM	500 to 50000 nM	500 to 50000 nM		COC(=O)Cc1nc(Cc2ccccc2)nn1CC(=O)N[C@@H](CCCCN)B1OC2CC3CC(C3(C)C)C2(C)O1 (stereo partly drawn) [Example 2443]
< 500 nM	< 500 nM	500 to 50000 nM		CC(C)(C)NS(=O)(=O)c1ccccc1-c1ccc(C(=O)N[C@@H](CCCNC=N)B2O[C@@H]3C[C@@H]4C[C@@H](C4(C)C)[C@]3(C)O2)cc1 [Example 302]
< 500 nM	500 to 50000 nM		500 to 50000 nM	CC1(C)[C@@H]2C[C@H]3OB([C@H](CCCCN)NC(=O)Cn4nc(-c5cccc([N+](=O)[O-])c5)nc4Cc4ccccc4)O[C@@]3(C)[C@H]1C2 [Example 923]
< 500 nM	500 to 50000 nM		500 to 50000 nM	Cc1nc(Cc2ccccc2)n(CC(=O)N[C@@H](CCCCN)B2O[C@@H]3C[C@@H]4C[C@@H](C4(C)C)[C@]3(C)O2)n1 [Example 888]
< 50000 nM	500 to 50000 nM	> 500000 nM		CC1(C)C2CC3OB([C@H](CCCCN)NC(=O)Cn4nc(Cc5ccccc5)nc4CC(=O)O)OC3(C)C1C2 (single isomer, unassigned) [Example 2430]

Ki [1]	Ki [2]	Ki [3, 4]	Ki [3]	SMILES
< 500 nM	< 500 nM	< 500 nM		CCN(CC)S(=O)(=O)c1ccccc1-c1ccc(C(=O)N[C@@H](CCCNC(=N)N)B2O[C@@H]3C[C@@H]4C[C@@H](C4(C)C)[C@]3(C)O2)c(C)c1 [Example 286]
< 500 nM	< 500 nM	< 500 nM		CC1(C)[C@@H]2C[C@H]3OB([C@H](CCCNC(=N)N)NC(=O)c4ccc(-c5ccccc5)cc4[N+](=O)[O-])O[C@@]3(C)[C@H]1C2 [Example 203]
< 500 nM	500 to 50000 nM	500 to 50000 nM		CC1(C)C2CC3OB([C@H](CCCCN)NC(=O)Cn4cnc(-c5ccccc5)n4)OC3(C)C1C2 (single isomer, unassigned) [Example 2073]
< 500 nM	500 to 50000 nM	< 500 nM		CC1(C)C2CC3OB([C@H](CCCNC(=N)N)NC(=O)Cn4nc(Cc5ccccc5)nc4Cc4ccccc4)OC3(C)C1C2 (single isomer, unassigned) [Example 967]
< 50000 nM	500 to 50000 nM	> 500000 nM		CC1(C)[C@@H]2C[C@H]3OB([C@H](CCCCN)NC(=O)Cn4nc(CC(=O)O)nc4Cc4ccccc4)O[C@@]3(C)[C@H]1C2 [Example 905]
< 50000 nM	500 to 50000 nM	500 to 50000 nM		COCCC[C@H](NC(=O)c1ccc(-c2ccccc2S(N)(=O)=O)cc1C)B1O[C@@H]2C[C@@H]3C[C@@H](C3(C)C)[C@]2(C)O1 [Example 305]
< 50000 nM	500 to 50000 nM	500 to 50000 nM		CC1(C)C2CC3OB([C@H](CCCCN)NC(=O)Cn4nc(CO)nc4CCc4ccccc4)OC3(C)C1C2 (single isomer, unassigned) [Example 1459]
< 500 nM	< 500 nM	< 500 nM		Cc1cc(-c2ccccc2S(=O)(=O)NC(C)(C)C)ccc1C(=O)N[C@@H](CCCNC(=N)N)B(O)O [Example 224]
< 500 nM	500 to 50000 nM	< 500 nM		CC1(C)C2CC3OB([C@H](CCCNC(=N)N)NC(=O)Cn4nc(Cc5ccccc5)nc4-c4ccccc4)OC3(C)C1C2 (single isomer, unassigned) [Example 2490]
< 500 nM	500 to 50000 nM	500 to 50000 nM		CC(C)(C)OC(=O)Nc1cc(-c2ccccc2)ccc1C(=O)N[C@@H](CCCNC(=N)N)B1O[C@@H]2C[C@@H]3C[C@@H](C3(C)C)[C@]2(C)O1 [Example 303]
< 500 nM	500 to 50000 nM	500 to 50000 nM		Cc1nc(-c2ccccc2)ncc1C(=O)N[C@@H](CCCNC(=N)N)B1O[C@@H]2C[C@@H]3C[C@@H](C3(C)C)[C@]2(C)O1 [Example 3538, R-N^1-((2-phenyl-4-methylpyrimidin-5-yl)carbonyl)boroarginine, (+)-pinanediol ester, hydrochloride]
< 500 nM	< 500 nM	500 to 50000 nM		CC1(C)[C@@H]2C[C@H]3OB([C@H](CCCSC(=N)N)NC(=O)c4cccc(-c5ccccc5)c4)O[C@@]3(C)[C@H]1C2 [Example 35]
< 50000 nM	500 to 50000 nM	500 to 50000 nM		CC1(C)C2CC3OB([C@H](CCCCN)NC(=O)Cn4nc(COCc5ccccc5)nc4CCc4ccccc4)OC3(C)C1C2 (single isomer, unassigned) [Example 2068]
< 500 nM	500 to 50000 nM	500 to 50000 nM		CC1(C)C2CC3OB([C@H](CCCCN)NC(=O)Cn4nc(Cc5ccccc5)nc4-c4ccccc4)OC3(C)C1C2 (stereo partly drawn) [Example 2446]
< 500 nM	500 to 50000 nM	500 to 50000 nM		CC1(C)C2CC3OB([C@H](CCCCN)NC(=O)Cn4nc(Cc5ccccc5)nc4Cc4ccccc4)OC3(C)C1C2 (stereo partly drawn) [Example 2447]
< 500 nM	500 to 50000 nM	500 to 50000 nM		CC1(C)C2CC3OB([C@H](CCCCN)NC(=O)Cn4nc(Cc5ccccc5)nc4CO)OC3(C)C1C2 (single isomer, unassigned) [Example 2439]
